Test results reported in ChEMBL document CHEMBL1201861, “Genomics of Drug Sensitity in Cancer screening data, Wellcome Trust Sanger Institute”.

Assays:
Assay in all cases: cells
Conditions in all cases: Homo sapiens
UACC-257 = format: functional, cell-based
Description: SANGER: Inhibition of human UACC-257 cell growth in a cell viability assay.

SK-PN-DW = format: functional, cell-based;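 also: growth inhibition measured with a viability assay on these cells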
Description: SANGER: Inhibition of human SK-PN-DW cell growth in a cell viability assay.

CAS-1 = format: functional, cell-based;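 also: growth inhibition of CAS-1 cells, measured with a cell viability assay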
Description: SANGER: Inhibition of human CAS-1 cell growth in a cell viability assay.

MHH-NB-11 = format: functional, cell-based;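 also: growth inhibition of human MHH-NB-11 cells, read out by a cell viability assay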
Description: SANGER: Inhibition of human MHH-NB-11 cell growth in a cell viability assay.

LAMA-84 = format: functional, cell-based;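 also: growth inhibition of LAMA-84 cells, read out with a cell viability assay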
Description: SANGER: Inhibition of human LAMA-84 cell growth in a cell viability assay.

SNU-5 = format: functional, cell-based;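 also: cell viability readout used to measure growth inhibition in human NCI-SNU-5 cells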
Description: SANGER: Inhibition of human NCI-SNU-5 cell growth in a cell viability assay.

NB69 = format: functional, cell-based;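 also: growth inhibition of NB69 cells, determined by a cell viability assay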
Description: SANGER: Inhibition of human NB69 cell growth in a cell viability assay.

MEG-01 = format: functional, cell-based;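 also: growth inhibition of MEG-01 cells, read out by a cell viability assay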
Description: SANGER: Inhibition of human MEG-01 cell growth in a cell viability assay.

ONS-76 = format: functional, cell-based;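 also: growth inhibition of human ONS-76 cells, read out with a cell viability assay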
Description: SANGER: Inhibition of human ONS-76 cell growth in a cell viability assay.

NCI-H747 = format: functional, cell-based;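 also: growth inhibition of human NCI-H747 cells, read out by a cell viability assay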
Description: SANGER: Inhibition of human NCI-H747 cell growth in a cell viability assay.

HCC1187 = format: functional, cell-based;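 also: growth inhibition of HCC1187 cells, read out with a cell viability assay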
Description: SANGER: Inhibition of human HCC1187 cell growth in a cell viability assay.

TE-6 = format: functional, cell-based;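 also: growth inhibition of TE-6 cells, read out with a cell viability assay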
Description: SANGER: Inhibition of human TE-6 cell growth in a cell viability assay.

NH-12 = format: functional, cell-based;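 also: growth inhibition of NH-12 cells, read out with a cell viability assay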
Description: SANGER: Inhibition of human NH-12 cell growth in a cell viability assay.

L-428 = format: functional, cell-based
Description: SANGER: Inhibition of human L-428 cell growth in a cell viability assay.

TE-10 = format: functional, cell-based;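 also: growth inhibition of TE-10 cells, measured by a cell viability assay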
Description: SANGER: Inhibition of human TE-10 cell growth in a cell viability assay.

A388 = format: functional, cell-based;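 also: growth inhibition of human A388 cells, read out with a cell viability assay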
Description: SANGER: Inhibition of human A388 cell growth in a cell viability assay.

LU-134-A = format: functional, cell-based
Description: SANGER: Inhibition of human LU-134-A cell growth in a cell viability assay.

EW-16 = format: functional, cell-based;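 also: growth inhibition of human EW-16 cells, read out as cell viability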
Description: SANGER: Inhibition of human EW-16 cell growth in a cell viability assay.

ES4 = format: functional, cell-based;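 also: growth inhibition of human ES4 cells, read out by a cell viability assay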
Description: SANGER: Inhibition of human ES4 cell growth in a cell viability assay.

Becker = format: functional, cell-based;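 also: growth inhibition of Becker cells, read out with a cell viability assay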
Description: SANGER: Inhibition of human Becker cell growth in a cell viability assay.

MOLT-16 = format: functional, cell-based;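 also: growth inhibition of human MOLT-16 cells, read out with a cell viability assay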
Description: SANGER: Inhibition of human MOLT-16 cell growth in a cell viability assay.

HL-60 = format: functional, cell-based;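 also: growth inhibition of human HL-60 cells, read out with a cell viability assay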
Description: SANGER: Inhibition of human HL-60 cell growth in a cell viability assay.

GI-ME-N = format: functional, cell-based;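 also: growth inhibition of human GI-ME-N cells, read out with a cell viability assay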
Description: SANGER: Inhibition of human GI-ME-N cell growth in a cell viability assay.

HT-144 = format: functional, cell-based
Description: SANGER: Inhibition of human HT-144 cell growth in a cell viability assay.

Ramos-2G6-4C10 = format: functional, cell-based;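 also: growth inhibition of the cell line, measured by a cell viability read-out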
Description: SANGER: Inhibition of human Ramos-2G6-4C10 cell growth in a cell viability assay.

NCI-H209 = format: functional, cell-based;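 also: growth inhibition of human NCI-H209 cells, measured by a cell viability assay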
Description: SANGER: Inhibition of human NCI-H209 cell growth in a cell viability assay.

KMOE-2 = format: functional, cell-based;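 also: growth inhibition of human KMOE-2 cells, read out with a cell viability assay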
Description: SANGER: Inhibition of human KMOE-2 cell growth in a cell viability assay.

KLE = format: functional, cell-based;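 also: growth inhibition of human KLE cells, read out with a cell viability assay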
Description: SANGER: Inhibition of human KLE cell growth in a cell viability assay.

MC116 = format: functional, cell-based;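 also: growth inhibition of MC116 cells, read out with a cell viability assay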
Description: SANGER: Inhibition of human MC116 cell growth in a cell viability assay.

TGBC24TKB = format: functional, cell-based;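 also: growth inhibition of human TGBC24TKB cells, read out with a cell viability assay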
Description: SANGER: Inhibition of human TGBC24TKB cell growth in a cell viability assay.

NB10 = format: functional, cell-based;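 also: growth inhibition of NB10 cells, read out by a cell viability assay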
Description: SANGER: Inhibition of human NB10 cell growth in a cell viability assay.

COLO-320-HSR = format: functional, cell-based;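 also: growth inhibition of COLO-320-HSR cells, determined with a cell viability assay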
Description: SANGER: Inhibition of human COLO-320-HSR cell growth in a cell viability assay.

SK-N-FI = format: functional, cell-based;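 also: cell viability assay measuring growth inhibition of human SK-N-FI cells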
Description: SANGER: Inhibition of human SK-N-FI cell growth in a cell viability assay.

A101D = format: functional, cell-based;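 also: growth inhibition of the cell line, measured with a viability assay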
Description: SANGER: Inhibition of human A101D cell growth in a cell viability assay.

SK-NEP-1 = format: functional, cell-based;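 also: growth inhibition of human SK-NEP-1 cells, read out by a cell viability assay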
Description: SANGER: Inhibition of human SK-NEP-1 cell growth in a cell viability assay.

SF-539 = format: functional, cell-based;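 also: Read-out is a cell viability assay, with IC50 reflecting inhibition of cell growth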
Description: SANGER: Inhibition of human SF539 cell growth in a cell viability assay.

RKO = format: functional, cell-based;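 also: growth inhibition of human RKO cells, read out with a cell viability assay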
Description: SANGER: Inhibition of human RKO cell growth in a cell viability assay.

EW-1 = format: functional, cell-based
Description: SANGER: Inhibition of human EW-1 cell growth in a cell viability assay.

NCI-H1304 = format: functional, cell-based;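 also: growth inhibition of the cancer cell line, measured in a cell viability assay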
Description: SANGER: Inhibition of human NCI-H1304 cell growth in a cell viability assay.

L-363 = format: functional, cell-based
Description: SANGER: Inhibition of human L-363 cell growth in a cell viability assay.

U-87 MG = format: functional, cell-based, U-87MG ATCC;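 also: growth inhibition of the cells measured with a viability assay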
Description: SANGER: Inhibition of human U-87-MG cell growth in a cell viability assay.

OVCAR-4 = format: functional, cell-based;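 also: growth inhibition of human OVCAR-4 cells, measured with a cell viability assay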
Description: SANGER: Inhibition of human OVCAR-4 cell growth in a cell viability assay.

DMS-114 = format: functional, cell-based
EW-13 = format: functional, cell-based;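 also: growth inhibition of EW-13 cells, read out with a cell viability assay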
Description: SANGER: Inhibition of human EW-13 cell growth in a cell viability assay.

IA-LM = format: functional, cell-based;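 also: cell viability assay measuring growth inhibition of human IA-LM cells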
Description: SANGER: Inhibition of human IA-LM cell growth in a cell viability assay.

DOHH-2 = format: functional, cell-based;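 also: growth inhibition of human DOHH-2 cells, read out with a cell viability assay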
Description: SANGER: Inhibition of human DOHH-2 cell growth in a cell viability assay.

MZ2-MEL = format: functional, cell-based;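 also: growth inhibition of MZ2-MEL cells read out with a cell viability assay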
Description: SANGER: Inhibition of human MZ2-MEL cell growth in a cell viability assay.

GI-1 = format: functional, cell-based;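 also: growth inhibition of human GI-1 cells, measured with a cell viability readout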
Description: SANGER: Inhibition of human GI-1 cell growth in a cell viability assay.

MZ1-PC = format: functional, cell-based;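 also: cell viability assay measuring growth inhibition of human MZ1-PC cells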
Description: SANGER: Inhibition of human MZ1-PC cell growth in a cell viability assay.

MZ7-mel = format: functional, cell-based;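 also: growth inhibition of human MZ7-mel cells, measured by a cell viability assay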
Description: SANGER: Inhibition of human MZ7-mel cell growth in a cell viability assay.

MMAC-SF = format: functional, cell-based;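 also: growth inhibition of human MMAC-SF cells, read out with a cell viability assay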
Description: SANGER: Inhibition of human MMAC-SF cell growth in a cell viability assay.

EW-18 = format: functional, cell-based;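 also: growth inhibition of EW-18 cells, read out by a cell viability assay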
Description: SANGER: Inhibition of human EW-18 cell growth in a cell viability assay.

JVM-3 = format: functional, cell-based;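 also: growth inhibition of human JVM-3 cells, read out with a cell viability assay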
Description: SANGER: Inhibition of human JVM-3 cell growth in a cell viability assay.

NCI-H526 = format: functional, cell-based;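 also: growth inhibition of the human NCI-H526 cell line, measured by a cell viability assay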
Description: SANGER: Inhibition of human NCI-H526 cell growth in a cell viability assay.

SJSA-1 = format: functional, cell-based;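 also: growth inhibition of human SJSA-1 cells, read out through a cell viability measurement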
Description: SANGER: Inhibition of human SJSA-1 cell growth in a cell viability assay.

ATN-1 = format: functional, cell-based;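 also: growth inhibition of human ATN-1 cells, read out with a cell viability assay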
Description: SANGER: Inhibition of human ATN-1 cell growth in a cell viability assay.

BB30-HNC = format: functional, cell-based
Description: SANGER: Inhibition of human BB30-HNC cell growth in a cell viability assay.

DEL = format: functional, cell-based
Description: SANGER: Inhibition of human DEL cell growth in a cell viability assay.

EKVX = format: functional, cell-based
Description: SANGER: Inhibition of human EKVX cell growth in a cell viability assay.

SK-MEL-1 = format: functional, cell-based
Description: SANGER: Inhibition of human SK-MEL-1 cell growth in a cell viability assay.

KP-N-YS = format: functional, cell-based
Description: SANGER: Inhibition of human KP-N-YS cell growth in a cell viability assay.

NCI-H1581 = format: functional, cell-based
Description: SANGER: Inhibition of human NCI-H1581 cell growth in a cell viability assay.

NCI-H1395 = format: functional, cell-based
Description: SANGER: Inhibition of human NCI-H1395 cell growth in a cell viability assay.

Mo = format: functional, cell-based
Description: SANGER: Inhibition of human Mo-T cell growth in a cell viability assay.

HDLM-2 = format: functional, cell-based
Description: SANGER: Inhibition of human HDLM-2 cell growth in a cell viability assay.

KARPAS-45 = format: functional, cell-based
Description: SANGER: Inhibition of human KARPAS-45 cell growth in a cell viability assay.

Question: Which results are given for COc1cc(Nc2c(C#N)cnc3cc(OCCCN4CCN(C)CC4)c(OC)cc23)c(Cl)cc1Cl [BOSUTINIB]?
Answer: IC50 (UACC-257): > 2000 nM; IC50 (SK-PN-DW): > 2000 nM; IC50 (CAS-1): > 2000 nM; IC50 (MHH-NB-11): 1310 nM; IC50 (LAMA-84): 287 nM; IC50 (SNU-5): > 2000 nM; IC50 (NB69): > 2000 nM; IC50 (MEG-01): 512 nM; IC50 (ONS-76): 1680 nM; IC50 (NCI-H747): > 2000 nM; IC50 (HCC1187): > 2000 nM; IC50 (TE-6): > 2000 nM; IC50 (NH-12): > 2000 nM; IC50 (L-428): > 2000 nM; IC50 (TE-10): > 2000 nM; IC50 (A388): > 2000 nM; IC50 (LU-134-A): > 2000 nM; IC50 (EW-16): 1440 nM; IC50 (ES4): 1210 nM; IC50 (Becker): > 2000 nM; IC50 (MOLT-16): > 2000 nM; IC50 (HL-60): > 2000 nM; IC50 (GI-ME-N): > 2000 nM; IC50 (HT-144): > 2000 nM; IC50 (Ramos-2G6-4C10): > 2000 nM; IC50 (NCI-H209): 408 nM; IC50 (KMOE-2): > 2000 nM; IC50 (KLE): > 2000 nM; IC50 (MC116): > 2000 nM; IC50 (TGBC24TKB): > 2000 nM; IC50 (NB10): > 2000 nM; IC50 (COLO-320-HSR): > 2000 nM; IC50 (SK-N-FI): > 2000 nM; IC50 (A101D): 1940 nM; IC50 (SK-NEP-1): 972 nM; IC50 (SF-539): > 2000 nM; IC50 (RKO): > 2000 nM; IC50 (EW-1): > 2000 nM; IC50 (NCI-H1304): > 2000 nM; IC50 (L-363): > 2000 nM; IC50 (U-87 MG): > 2000 nM; IC50 (OVCAR-4): > 2000 nM; IC50 (DMS-114): > 2000 nM; IC50 (EW-13): > 2000 nM; IC50 (IA-LM): > 2000 nM; IC50 (DOHH-2): > 2000 nM; IC50 (MZ2-MEL): > 2000 nM; IC50 (GI-1): > 2000 nM; IC50 (MZ1-PC): > 2000 nM; IC50 (MZ7-mel): > 2000 nM; IC50 (MMAC-SF): > 2000 nM; IC50 (EW-18): > 2000 nM; IC50 (JVM-3): 1050 nM; IC50 (NCI-H526): 1990 nM; IC50 (SJSA-1): > 2000 nM; IC50 (ATN-1): > 2000 nM; IC50 (BB30-HNC): 1290 nM; IC50 (DEL): 1440 nM; IC50 (EKVX): > 2000 nM; IC50 (SK-MEL-1): > 2000 nM; IC50 (KP-N-YS): > 2000 nM; IC50 (NCI-H1581): > 2000 nM; IC50 (NCI-H1395): > 2000 nM; IC50 (Mo): > 2000 nM; IC50 (HDLM-2): > 2000 nM; IC50 (KARPAS-45): 925 nM

Question: How did the IC50 (UACC-257) turn out when C[C@]12O[C@H](C[C@]1(O)CO)n1c3ccccc3c3c4c(c5c6ccccc6n2c5c31)CNC4=O [LESTAURTINIB] was run?
Answer: The IC50 was 532 nM.

Question: What about the IC50 (SK-PN-DW) of the same molecule?
Answer: The IC50 was 394 nM.

Question: And the IC50 (CAS-1)?
Answer: The IC50 was greater than 2000 nM.

Question: What about the IC50 (MHH-NB-11) of the same molecule?
Answer: Its IC50 is 1110 nM.

Question: What about the IC50 (LAMA-84) of the same molecule?
Answer: Its IC50 is 48.5 nM.

Question: What about the IC50 (SNU-5) of the same molecule?
Answer: The IC50 was greater than 2000 nM.

Question: What about the IC50 (NB69) of the same molecule?
Answer: The IC50 was 415 nM.

Question: What about the IC50 (MEG-01) of the same molecule?
Answer: The IC50 was 456 nM.

Question: What about the IC50 (ONS-76) of the same molecule?
Answer: Its IC50 is 136 nM.

Question: And the IC50 (NCI-H747)?
Answer: Its IC50 is 1050 nM.

Question: And the IC50 (HCC1187)?
Answer: Its IC50 is greater than 2000 nM.

Question: And the IC50 (TE-6)?
Answer: The IC50 was greater than 2000 nM.

Question: And the IC50 (NH-12)?
Answer: Its IC50 is 199 nM.

Question: And the IC50 (L-428)?
Answer: The IC50 was greater than 2000 nM.

Question: And the IC50 (TE-10)?
Answer: The IC50 was 1480 nM.

Question: And the IC50 (A388)?
Answer: The IC50 was greater than 2000 nM.

Question: And the IC50 (LU-134-A)?
Answer: Its IC50 is 600 nM.

Question: And the IC50 (EW-16)?
Answer: Its IC50 is 226 nM.

Question: And the IC50 (ES4)?
Answer: Its IC50 is 128 nM.

Question: And the IC50 (Becker)?
Answer: Its IC50 is 724 nM.

Question: What about the IC50 (MOLT-16) of the same molecule?
Answer: The IC50 was 89.8 nM.

Question: What about the IC50 (HL-60) of the same molecule?
Answer: Its IC50 is 149 nM.

Question: What about the IC50 (GI-ME-N) of the same molecule?
Answer: Its IC50 is 174 nM.

Question: And the IC50 (HT-144)?
Answer: Its IC50 is 978 nM.

Question: What about the IC50 (Ramos-2G6-4C10) of the same molecule?
Answer: The IC50 was 206 nM.

Question: What about the IC50 (NCI-H209) of the same molecule?
Answer: Its IC50 is 36.7 nM.

Question: And the IC50 (KMOE-2)?
Answer: The IC50 was 617 nM.

Question: And the IC50 (KLE)?
Answer: The IC50 was greater than 2000 nM.

Question: What about the IC50 (MC116) of the same molecule?
Answer: The IC50 was 190 nM.

Question: And the IC50 (TGBC24TKB)?
Answer: Its IC50 is greater than 2000 nM.

Question: And the IC50 (NB10)?
Answer: The IC50 was 338 nM.

Question: And the IC50 (COLO-320-HSR)?
Answer: Its IC50 is greater than 2000 nM.

Question: What about the IC50 (SK-N-FI) of the same molecule?
Answer: The IC50 was 1100 nM.

Question: And the IC50 (A101D)?
Answer: The IC50 was 67 nM.

Question: What about the IC50 (SK-NEP-1) of the same molecule?
Answer: Its IC50 is 112 nM.

Question: And the IC50 (SF-539)?
Answer: Its IC50 is 175 nM.

Question: And the IC50 (RKO)?
Answer: Its IC50 is 299 nM.

Question: And the IC50 (EW-1)?
Answer: Its IC50 is 1080 nM.

Question: What about the IC50 (NCI-H1304) of the same molecule?
Answer: Its IC50 is greater than 2000 nM.

Question: What about the IC50 (L-363) of the same molecule?
Answer: Its IC50 is 147 nM.

Question: And the IC50 (U-87 MG)?
Answer: The IC50 was greater than 2000 nM.

Question: What about the IC50 (OVCAR-4) of the same molecule?
Answer: Its IC50 is greater than 2000 nM.

Question: And the IC50 (DMS-114)?
Answer: The IC50 was 1520 nM.

Question: And the IC50 (EW-13)?
Answer: The IC50 was greater than 2000 nM.

Question: What about the IC50 (IA-LM) of the same molecule?
Answer: Its IC50 is greater than 2000 nM.

Question: And the IC50 (DOHH-2)?
Answer: Its IC50 is 184 nM.

Question: And the IC50 (MZ2-MEL)?
Answer: The IC50 was 236 nM.

Question: And the IC50 (GI-1)?
Answer: Its IC50 is 546 nM.

Question: And the IC50 (MZ1-PC)?
Answer: Its IC50 is greater than 2000 nM.

Question: And the IC50 (MZ7-mel)?
Answer: The IC50 was 603 nM.

Question: And the IC50 (MMAC-SF)?
Answer: The IC50 was 72.1 nM.

Question: And the IC50 (EW-18)?
Answer: The IC50 was 635 nM.

Question: What about the IC50 (JVM-3) of the same molecule?
Answer: Its IC50 is 29.2 nM.

Question: And the IC50 (NCI-H526)?
Answer: Its IC50 is greater than 2000 nM.

Question: What about the IC50 (SJSA-1) of the same molecule?
Answer: Its IC50 is 216 nM.

Question: What about the IC50 (ATN-1) of the same molecule?
Answer: Its IC50 is 104 nM.

Question: And the IC50 (BB30-HNC)?
Answer: Its IC50 is 935 nM.

Question: And the IC50 (DEL)?
Answer: The IC50 was 47.3 nM.

Question: What about the IC50 (EKVX) of the same molecule?
Answer: Its IC50 is 606 nM.

Question: What about the IC50 (SK-MEL-1) of the same molecule?
Answer: The IC50 was greater than 2000 nM.

Question: And the IC50 (KP-N-YS)?
Answer: Its IC50 is 713 nM.

Question: And the IC50 (NCI-H1581)?
Answer: Its IC50 is 356 nM.

Question: And the IC50 (NCI-H1395)?
Answer: Its IC50 is 281 nM.

Question: And the IC50 (Mo)?
Answer: The IC50 was greater than 2000 nM.

Question: What about the IC50 (HDLM-2) of the same molecule?
Answer: The IC50 was greater than 2000 nM.

Question: And the IC50 (KARPAS-45)?
Answer: Its IC50 is 52.4 nM.
